Test results taken from patent US20060177553A1, “Method of powdering nonsugar component and powdering base” (priority 2003, published 2006).

Assays:
Assay type in all cases: physicochemical
[1] = Reducing power (DE, Somogyi-Nelson method)
Procedure: A reagent grade maltotetraose (purity 97.0% or higher), commercialized by Hayashibara Biochemical Laboratories Inc., Okayama, Japan, was prepared into 20% solution and admixed with two units/g-saccharide of non-reducing saccharide-forming enzyme, disclosed in Japanese Patent No. 44695/81, and followed enzymatic reaction at 46° C. for 48 hours, and the saccharide solution containing 79.8% of α-maltosyl α,α-trehalose, d.s.b., was obtained. After adjusting the pH to 6.0, the saccharide solution was admixed with 10 units/g-saccharide of β-amylase, commercialized by Nagase & Co., Ltd., Osaka, Japan, and followed enzymatic reaction at 50° C. for 48 hours to hydrolyze maltotetraose. After autoclaving at 120° C. for 10 minutes, the reaction mixture was cooled and filtrated. The resulting filtrate was subjected to a column chromatography using “XT-1016 (Na^+-form, degree of crosslinking 4%)”, a strong acid cation-exchanger resin commercialized by Rohm and Hass Japan K.K., Fukushima, Japan, and collected α-maltosyl α,α-trehalose high content fractions. The saccharide solution was purified, concentrated, and spray-dried to prepare an amorphous powdery α-maltosyl α,α-trehalose high content base for the powderization.

[2] = Hygroscopicity of the product
[3] = Solubility in water of the product

reducibility [1]: no reducibility
reducing power ([1]; Somogyi-Nelson method): less than the detection limit
hygroscopicity [2]: low
solubility in water [3]: satisfactory
Structure (SMILES): OC[C@H]1O[C@H](O[C@H]2O[C@H](CO)[C@@H](O[C@H]3O[C@H](CO)[C@@H](O[C@H]4O[C@H](CO)[C@@H](O)[C@H](O)[C@H]4O)[C@H](O)[C@H]3O)[C@H](O)[C@H]2O)[C@H](O)[C@@H](O)[C@@H]1O [Example A-5, α-maltosyl α,α-trehalose]
